Assay [1] relates to mPGES-1-dependent PGE2 production in human blood. Kind of assay: Whole blood assay (LPS-stimulated human blood, PGE2 production). Format: cell-based. As to conditions: 0.1 μg/ml LPS, 16 hours at 37° C., PGE2 by HTRF, read-out: hWBA. From the text: The whole blood assay [described by Patrignani, P. et al, Journal of Pharmacology and Experimental Therapeutics, 1994, vol. 271, pp 1705-1712] was used as the whole cell assay for testing the compounds. Whole blood provides a protein and cell rich environment for the study of biochemical efficacy of anti-inflammatory compounds, such as prostaglandin synthase inhibitors. To study the inhibitory activities of these compounds, human blood was stimulated with lipopolysaccharide (LPS) for typically 16 hours to induce mPGES-1 expression, after which the concentration of produced PGE2 was measured by competitive-immuno assay (homogeneous time-resolved fluorescence, HTRF) as read out for effectiveness against mPGES-1-dependent PGE2 production.
Human blood collected from human volunteers in heparinized tubes was incubated with 100 μM acetyl salicylic acid, in order to inhibit the constitutively expressed cyclooxygenase (COX)-1/COX-2 enzymes, and then stimulated with 0.1 μg/ml LPS to induce the expression of enzymes along the COX-2 pathway, e.g. COX-2 and mPGES-1. 100 μL of this blood was added to the wells of a 384-well plate containing 1 μL DMSO solutions of compounds typically in the final concentration range 316 μM to 0.01 μM. Naproxen was used as reference compound. The mix was incubated at 37° C. for 16 hours. Plasma was harvested by centrifugation and stored at −70° C. until further analysis of PGE2 levels. For the calculations, the 0%-activity value was represented by blood treated with acetyl salicylic acid, LPS and the reference compound (1 mM Naproxen). The 100%-activity value was represented by blood treated with aspirin, LPS and DMSO. [Reference: Patrignani, P. et al, Journal of Pharmacology and Experimental Therapeutics, 1994, vol. 271, pp 1705-1712]. The PGE2 formed was quantified, after dilution in a weak potassium phosphate buffer (50 mM, pH 6.8) containing 0.2% BSA (w/v), by use of a commercial HTRF based kit (catalogue #62PG2PEC or #62P2APEC from Cisbio International). IC50 values were then determined using standard procedures.
Background: Time-resolved FRET reads energy transfer from a long-lived donor to a nearby acceptor.

Assay [2] addresses T1, human mPGES-1 (Homo sapiens, UniProt O14684).
T1 construct: host or cells: microsomes
T1 sequence (O14684 1-152): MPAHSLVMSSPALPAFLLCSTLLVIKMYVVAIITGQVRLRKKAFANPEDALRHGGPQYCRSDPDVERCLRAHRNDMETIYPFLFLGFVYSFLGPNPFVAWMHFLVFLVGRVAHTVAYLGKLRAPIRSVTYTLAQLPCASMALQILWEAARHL
Kind of assay: Microsomal prostaglandin E synthase biochemical assay. As to conditions: microsomes containing human mPGES-1, PGH2 10.8 μM, GSH 2.5 mM, pH 6.8; average of at least n=2. The procedure:
Compounds were tested as inhibitors of microsomal prostaglandin E synthase activity in microsomal prostaglandin E synthase assays and whole cell assays. These assays measure prostaglandin E2 (PGE2) synthesis, which is taken as a measure of prostaglandin E synthase activity. Microsomal prostaglandin E synthase biochemical assays used microsomal prostaglandin E synthase-1 in microsomal preparations. The source of the microsomes can be for example interleukin-1β-stimulated human A549 cells (which express human mPGES-1) or Sf9 cells transfected with plasmids encoding human mPGES-1 cDNA.
A solution of test compound was added to a diluted microsome preparation containing human mPGES-1 and pre-incubated for 15 minutes in potassium phosphate buffer pH 6.8 with cofactor glutathione (GSH). Corresponding solutions without test compound were used as positive controls, and corresponding solutions without test compound and without microsomes were used as negative controls. The enzymatic reaction was then started by addition of the substrate PGH2 in an organic solution (dry acetonitrile).
The typical reaction conditions of the enzymatic reaction were thus: Test compound: ranging from 60 μM to 0.002 μM, or zero in positive and negative controls; potassium phosphate buffer pH 6.8:50 mM; GSH: 2.5 mM; mPGES-1-containing microsomes: 2 μg/mL (sample and positive controls) or 0 μg/mL (negative control); PGH2: 10.8 μM; Acetonitrile: 7.7% (v/v); DMSO: 0.6% (v/v). The reaction was stopped after one minute by adding an acidic solution (pH 1.9) of ferric chloride and citrate (final concentrations 7 mM and 47 mM respectively), by which the PGH2 was sequestered (the PGH2 is reduced to mainly 12-hydroxy heptadecatrineoic acid (12-HHT) which is not detected by the subsequent PGE2 detection step). The resulting solution was then pH neutralized by addition of potassium phosphate buffer, prior to diluting an aliquot of the resulting solution in a weak potassium phosphate buffer (50 mM, pH 6.8) containing 0.2% BSA (w/v). [Adapted from Jacobsson et al., Proc. Natl. Acad. Sci. USA, 1999, vol. 96, pp. 7220-7225] The PGE2 formed was quantified by use of a commercial HTRF based kit (catalogue #62PG2PEC or #62P2APEC from Cisbio International). 100% activity was defined as the PGE2 production in positive controls subtracted by the PGE2 production in the negative controls. IC50 values were then determined using standard procedures.
The potency is expressed as IC50 and the value indicated is an average of at least n=2.

Some results are limits rather than exact numbers.

Turning to `NS(=O)(=O)c1ccccc1NS(=O)(=O)CCc1ccc(Br)cc1OCC1CCOCC1` [Example 1, 2-[({2-[4-Bromo-2-(tetrahydro-2H-pyran-4-ylmethoxy)phenyl]ethyl}sulfonyl)amino]benzenesulfonamide], the IC50 amounted to 63.9 nM in assay [1] and 3.4 nM in assay [2].

As to `NS(=O)(=O)c1ccccc1NS(=O)(=O)CCc1ccc(Cl)cc1OCC1CCOCC1` [Example 2, 2-[({2-[4-Chloro-2-(tetrahydro-2H-pyran-4-ylmethoxy)phenyl]ethyl}sulfonyl)amino]benzenesulfonamide], the values for the IC50 in assay [1] and in assay [2] were 24.9 nM and 3.5 nM, respectively.

Regarding `NS(=O)(=O)c1ccccc1NS(=O)(=O)CCc1ccc(C(F)(F)F)cc1OCC1CCOCC1` [Example 3, 2-[({2-[2-(Tetrahydro-2H-pyran-4-ylmethoxy)-4-(trifluoromethyl)phenyl]ethyl}sulfonyl)amino]benzenesulfonamide], the IC50 in assay [1] was found to be 26.6 nM; in assay [2] it was 4 nM.

As for `Cc1ccc(CCS(=O)(=O)Nc2ccccc2S(N)(=O)=O)c(OCC2CCOCC2)c1` [Example 4, 2-[({2-[4-methyl-2-(tetrahydro-2H-pyran-4-ylmethoxy)phenyl]ethyl}sulfonyl)amino]benzenesulfonamide], the IC50 in assay [1] worked out at 154 nM; in assay [2] it was 15 nM.

Consider `NS(=O)(=O)c1ccccc1NS(=O)(=O)CCc1ccc(F)cc1OCC1CCOCC1` [Example 5, 2-[({2-[4-Fluoro-2-(tetrahydro-2H-pyran-4-ylmethoxy)phenyl]ethyl}sulfonyl)amino]benzenesulfonamide], for which the IC50 in assay [1] was 89.7 nM; in assay [2], 16 nM.

With `NS(=O)(=O)c1ccccc1NS(=O)(=O)CCc1ccc(Cl)cc1OCC1CCC(F)(F)CC1` [Example 6, 2-{[(2-{4-Chloro-2-[(4,4-difluorocyclohexyl)methoxy]phenyl}ethyl)sulfonyl]amino}benzenesulfonamide], the IC50 in assay [1] amounted to 11.5 nM; in assay [2], 2.7 nM.

As for `Cc1ccc(CCS(=O)(=O)Nc2ccccc2S(N)(=O)=O)c(OCC2CCC(F)(F)CC2)c1` [Example 7, 2-{[(2-{2-[(4,4-Difluorocyclohexyl)methoxy]-4-methylphenyl}ethyl)sulfonyl]amino}benzenesulfonamide], the IC50 in assay [1] was 54.1 nM; in assay [2] it was 7.2 nM.

As to `NS(=O)(=O)c1ccccc1NS(=O)(=O)CCc1ccc(F)cc1OCC1CCC(F)(F)CC1` [Example 8, 2-{[(2-{2-[(4,4-Difluorocyclohexyl)methoxy]-4-fluorophenyl}ethyl)sulfonyl]amino}benzenesulfonamide], the values for the IC50 in assay [1] and in assay [2] were 149 nM and 7.6 nM, respectively.

Turning to `NS(=O)(=O)c1ccccc1NS(=O)(=O)CCc1ccc(C#Cc2ccccc2)cc1OCC1CCOCC1` [Example 9, 2-[({2-[4-(Phenylethynyl)-2-(tetrahydro-2H-pyran-4-ylmethoxy)phenyl]ethyl}sulfonyl)amino]benzenesulfonamide], the IC50 amounted to 0.911 nM in assay [1] and 3.4 nM in assay [2].

Consider `NS(=O)(=O)c1ccccc1NS(=O)(=O)CCc1ccc(C#CC2CC2)cc1OCC1CCOCC1` [Example 10, 2-[({2-[4-(Cyclopropylethynyl)-2-(tetrahydro-2H-pyran-4-ylmethoxy)phenyl]ethyl}sulfonyl)amino]benzenesulfonamide], for which the IC50 was 7.92 nM in assay [1] and less than 2.2 nM in assay [2].

For `NS(=O)(=O)c1ccccc1NS(=O)(=O)CCc1ccc(C#CC2CCCC2)cc1OCC1CCOCC1` [Example 11, 2-[({2-[4-(Cyclopentylethynyl)-2-(tetrahydro-2H-pyran-4-ylmethoxy)phenyl]ethyl}sulfonyl)amino]benzenesulfonamide], the IC50 in assay [1] is 0.987 nM; in assay [2], 2.1 nM.

In the case of `NS(=O)(=O)c1ccccc1NS(=O)(=O)CCc1ccc(C#CC2CCC2)cc1OCC1CCOCC1` [Example 12, 2-[({2-[4-(cyclobutylethynyl)-2-(tetrahydro-2H-pyran-4-ylmethoxy)phenyl]ethyl}sulfonyl)amino]benzenesulfonamide], the IC50 in assay [1] is 1.84 nM; in assay [2] it was less than 2.3 nM.

On to `CC(C)C#Cc1ccc(CCS(=O)(=O)Nc2ccccc2S(N)(=O)=O)c(OCC2CCOCC2)c1` [Example 13, 2-[({2-[4-(3-methylbut-1-yn-1-yl)-2-(tetrahydro-2H-pyran-4-ylmethoxy)phenyl]ethyl}sulfonyl)amino]benzenesulfonamide], for which the IC50 in assay [1] worked out at 1.85 nM; in assay [2], 3.4 nM.

In the case of `Cc1ccc(C#Cc2ccc(CCS(=O)(=O)Nc3ccccc3S(N)(=O)=O)c(OCC3CCOCC3)c2)cc1` [Example 14, 2-{[(2-{4-[(4-Methylphenyl)ethynyl]-2-(tetrahydro-2H-pyran-4-ylmethoxy)phenyl}ethyl)sulfonyl]amino}benzenesulfonamide], the values for the IC50 in assay [1] and in assay [2] were 0.987 nM and 2.1 nM, respectively.

On to `CC(C)(C)C#Cc1ccc(CCS(=O)(=O)Nc2ccccc2S(N)(=O)=O)c(OCC2CCOCC2)c1` [Example 15, 2-[({2-[4-(3,3-Dimethylbut-1-yn-1-yl)-2-(tetrahydro-2H-pyran-4-ylmethoxy)phenyl]ethyl}sulfonyl)amino]benzenesulfonamide], for which the IC50 in assay [1] is 17.1 nM; in assay [2], less than 2.5 nM.

For `NS(=O)(=O)c1cc(CO)ccc1NS(=O)(=O)CCc1ccc(Cl)cc1OCC1CCOCC1` [Example 16, 2-[({2-[4-chloro-2-(tetrahydro-2H-pyran-4-ylmethoxy)phenyl]ethyl}sulfonyl)amino]-5-(hydroxymethyl)benzenesulfonamide], the IC50 turned out to be 29 nM in assay [1] and 5.6 nM in assay [2].

On to `NS(=O)(=O)c1cc(CO)ccc1NS(=O)(=O)CCc1ccc(F)cc1OCC1CCOCC1` [Example 17, 2-[({2-[4-fluoro-2-(tetrahydro-2H-pyran-4-ylmethoxy)phenyl]ethyl}sulfonyl)amino]-5-(hydroxymethyl)benzenesulfonamide], for which the results for the IC50 in assay [1] and in assay [2] were 214 nM and 19.5 nM, respectively.

Source of the values: patent US10081614B2, “Bis(sulfonamide) derivatives and their use as mPGES inhibitors” (Acturum Real Estate AB, priority 2014, dated 2018).
